Source: publication PMC9686139, “Furanoditerpenes from Spongia (Spongia) tubulifera Display Mitochondrial-Mediated Neuroprotective Effects by Targeting Cyclophilin D” (ACS Chemical Neuroscience, 2022)

Tests used:
SH-SY5Y cells [1] = assay: GSH content, Thiol Tracker Violet; type: cell-based, human
Protocol: To confirm the antioxidant properties of S. tubulifera compounds, the levels of the most important nonenzymatic antioxidant of cells, glutathione (GSH), were assessed. […] Regarding diterpene 2, an increase in the nonenzymatic antioxidant was observed when cells were cotreated with H2O2 and this compound at 0.001 and 1 μM (p < 0.05) (Figure 5b). No effects were found after the addition of 3 (Figure 5c), but 4 and 5 presented interesting results (Figure 5d,e).
Figure 5 Effect of S. tubulifera metabolites in the GSH content of human neuroblastoma cells. SH-SY5Y cells were treated with compounds for 6 h with and without 150 μM H2O2. GSH levels were monitored with Thiol Tracker Violet dye. (a) Compound 1, (b) compound 2, (c) compound 3, (d) compound 4, and (e) compound 5 results. Vitamin E (Vit E) at 25 μM was used as a positive control. Mean ± SEM of three experiments performed in triplicate. Data presented as the percentage of untreated control cells and compared by one-way ANOVA and Dunnett’s tests. ^##p < 0.01 compared to control cells. *p < 0.05 compared to cells treated with H2O2 alone.
(§1) For these experiments, cells were seeded in 384-well plates and treated as described above. All of the assays were carried out as previously described.[15]
Thiol Tracker Violet was used to measure intracellular GSH levels, following the manufacturer’s instructions. Briefly, human neuroblastoma cells were rinsed twice with PBS and the fluorescence dye at 10 μM was added. The plate was incubated for 30 min at 37 °C and 300 rpm, and the fluorescence was measured at 404 nm excitation and 526 nm emission in a plate reader. All experiments were performed three independent times in triplicate.

SH-SY5Y cells [2] = assay: ROS intracellular levels, carboxy-H2DCFDA; type: cell-based, human; settings: for effect on ROS content: cotreatment with 150 μM H2O2, 6 h
Protocol: Next, the capacity of S. tubulifera metabolites to decrease ROS intracellular levels was evaluated (Figure 4). […] Regarding the oxidative stress model, H2O2 augmented the levels of oxidant molecules up to 125.1 ± 2.4% (p < 0.01) and the known antioxidant Vit E, used as a positive control, induced a reduction in ROS release of 24% with respect to cells treated only with H2O2 (p < 0.05).
Figure 4 ROS intracellular levels after treatment with compounds. Furanoditerpenes were added for 6 h in the absence and presence of 150 μM H2O2. Then, the ROS content was measured with the fluorescent dye 5-(and-6)-carboxy-2′,7′-dichlorodihydrofluorescein diacetate (carboxy-H2DCFDA). Results from (a) 1, (b) 2, (c) 3, (d) 4, and (e) 5. Vitamin E (Vit E) at 25 μM was used as a positive control. Data expressed as the percentage of untreated control cells. Mean ± SEM of three experiments performed in triplicate. Statistical differences determined by one-way ANOVA test followed by Dunnett’s post hoc test. ^##p < 0.01 compared to control cells. *p < 0.05, **p < 0.01, and ***p < 0.01 compared to H2O2 control.
as §1
The fluorescent dye 5-(and-6)-carboxy-2′,7′-dichlorodihydrofluorescein diacetate (carboxy-H2DCFDA) was used to evaluate ROS levels. After treatment with compounds and H2O2, cells were washed twice with serum-free medium. Next, cells were loaded with 20 μM carboxy-H2DCFDA dissolved in serum-free medium, and the plate was incubated for 1 h at 37 °C and 300 rpm. Then, 100 μL of PBS were added to each well for 30 min at 37 °C and 300 rpm. After this incubation, the fluorescence was read at […].

CypC = CypC expression by Western blot; settings: 0.001 μM + 150 μM H2O2, 6 h; % of H2O2 control
Protocol: (§2) Human neuroblastoma cells were treated with compounds at 0.001 μM for 6 h, and Cyps expression was determined by Western blot (Figure 10). […] SH-SY5Y cells were treated with 1–5 at 0.001 μM for 6 h, and their effects on Cyps expression were determined by Western blot. […] Protein band expression was normalized by actin levels. Results expressed as the percentage of untreated control cells or as the percentage of H2O2 control. Mean ± SEM of three replicates carried out in duplicate. Statistical differences determined by one-way ANOVA and Dunnett’s tests. ^#p < 0.05 and ^##p < 0.01 compared to control cells. *p < 0.05, **p < 0.01, and ***p < 0.01 compared to cells treated with H2O2 alone. […]
(§3) Cells were washed twice with ice-cold PBS, and a hypotonic solution was added (20 mM tris–HCl pH 7.4, 10 mM NaCl, and 3 mM MgCl2, containing phosphatase and protease inhibitor cocktail). […] The supernatant was collected as the cytosolic fraction, and protein concentration was quantified with the Direct Detect instrument (Merck Millipore, Darmstadt, Germany).[15]
(§4) Electrophoresis was resolved in 4–20% sodium dodecyl sulfate polyacrylamide gels (Biorad, Hercules, CA), containing 15 μg of cytosolic protein from each sample. […] Immunoreactive bands were detected with Supersignal West Pico Luminiscent Substrate and Supersignal West Femto Maximum Sensitivity Substrate. […]

CypD = CypD expression by Western blot; settings: compound 0.001 μM + 150 μM H2O2, 6 h; % of H2O2 control cells
Text: (b) CypD expression after treatment with S. tubulifera metabolites. (c) Effect of compounds on the CypD expression under oxidative stress conditions. […] Protein band expression was normalized by actin levels. Results are mean ± SEM of three replicates carried out in duplicate. Data expressed as the percentage of untreated control cells and H2O2 control. Values compared by one-way ANOVA and Dunnett’s tests. ^#p < 0.05 and ^##p < 0.01 compared to control cells. *p < 0.05 and **p < 0.01 compared to cells treated with H2O2 alone.
In this context, the expression of this protein was analyzed after treatment with compounds. CypD cytosolic levels were evaluated after treatment with 1–5 alone for 6 h and after the coaddition of diterpenes and H2O2 to get a complete insight into diterpene mitochondria-related effects.
SH-SY5Y cells were cultured in 12-well plates at 1 × 10^6 cells per well and allowed to settle down for 24 h.
Cells were washed twice with ice-cold PBS, and a hypotonic solution was added (20 mM tris–HCl pH 7.4, 10 mM NaCl, and 3 mM MgCl2, containing phosphatase and protease inhibitor cocktail). Cells were incubated for 15 min on ice and centrifuged at 3000 rpm and 4 °C for 15 min. The supernatant was collected as the cytosolic fraction, and protein concentration was quantified with the Direct Detect instrument (Merck Millipore, Darmstadt, Germany).[15]
Electrophoresis was resolved in 4–20% sodium dodecyl sulfate polyacrylamide gels (Biorad, Hercules, CA), containing 15 μg of cytosolic protein from each sample. The Trans-Blot semidry transfer cell (Biorad) was used to transfer proteins to poly(vinylidene difluoride) (PVDF) membranes (Merck Millipore). Snap i.d. system (Merck Millipore) was used for membrane blocking and antibody incubation. […] Immunoreactive bands were detected with Supersignal West Pico Luminiscent Substrate and Supersignal West Femto Maximum Sensitivity Substrate. Diversity GeneSnap system and software (Syngene, Cambridge, U.K.) were used for protein band detection. Experiments were performed three independent times in duplicate.

human CypD = human CypD (Homo sapiens, UniProt P30405); assay: Surface plasmon resonance binding to immobilized CypD; settings: for selectivity between CypD and CypA (KD values): CypD versus CypA; for kon: read-out: ka, CypD
Protocol: With this objective, surface plasmon resonance (SPR) experiments were performed. CypD was immobilized in the sensor surface as a ligand, and 1–5 were injected as analytes. […] For immobilization, amine groups were activated with 1-ethyl-3-(3-dimethylaminopropyl)carbodiimide hydrochloride (EDC) and N-hydroxysuccinimide (NHS) and 50 μg/mL of human CypD dissolved in 5 mM sodium acetate (pH 4.5) was added. […] All of the assays were carried out with phosphate-buffered saline (PBS)—0.05% Tween (pH 7.2) as the running buffer, with a flow rate of 20 μL/min at 24 °C.
The left panels present association curves obtained by the addition of compounds over immobilized CypD and subtraction of their respective solvent control. The right panels show fitting curves for equilibrium binding. Representative graphs of one independent replicate. […] All injections were performed using PBS, 0.05% Tween (pH 7.2) as the running buffer. Kinetic equilibrium dissociation constants (KD) and fitting curves were obtained with TraceDrawer software.
(§5) SPR measurements were performed using the MP-SPR Navi 210A VASA instrument with SPR Navi Control software (BioNavis, Tampere, Finland). All of the analyses were carried out in three-dimensional (3D) carboxymethyl dextran hydrogel-coated (CMD-3DM) sensors (BioNavis). PBS, 0.05% Tween (pH 7.2) was used as the running buffer for sensor activation, protein immobilization, and analyte injection. All buffers were degassed and filtered by 0.22 μm before use. The flow rate and temperature were set at 20 μL/min and 24 °C, respectively. A commercial Amine Coupling Kit (Xantec bioanalytics GmbH, Düsseldorf, Germany) was used for sensor activation and Cyps immobilization. The chip surface was preconditioned with 2 M NaCl and 0.01 M NaOH. Then, the surface was activated by the addition of 0.2 M 1-ethyl-3-(3-dimethylaminopropyl)carbodiimide hydrochloride (EDC) and 0.05 M N-hydroxysuccinimide (NHS). After activation, 50 μg/mL of CypA or CypD dissolved in 5 mM sodium acetate buffer (pH 4.5) were injected for immobilization on the sensor surface. […] Compound injections were performed in serial mode, and the reference channel signal was subtracted from the analyte sensorgram. Data were processed with MP-SPR Navi Data Viewer (BioNavis), and KD values were obtained using the 1:1 Langmuir model with mass transport considerations of TraceDrawer software (RidgeView Instruments Ab, Uppsala, Sweden). All of the experiments were performed three independent times.

Human CypA = Human CypA (Homo sapiens, UniProt P62937); assay: Surface plasmon resonance binding to immobilized CypA; settings: for Kd: CypA, SPR, 1:1 Langmuir model, PBS-T pH 7.2, 24 °C; for kon: read-out: ka, CypA
Protocol: The protein was immobilized on the sensor surface by amino coupling, as described above (Figure S7), and compounds at several concentrations were added. The same conditions set for CypD were used for CypA experiments, with a flow rate of 20 μL/min and PBS-T (pH 7.2) as the running buffer.
Figure 9 Binding of compounds to CypA measured by surface plasmon resonance. The left panels present association curves obtained by the addition of compounds over immobilized CypA and subtraction of their respective vehicle signal. The right panels show fitting curves for equilibrium binding. Representative graphs of one independent replicate. […] Kinetic equilibrium dissociation constants (KD) and fitting curves were obtained with TraceDrawer software.
as §5

CypA = CypA expression by Western blot; settings: 0.001 μM, 6 h; physiological and oxidative stress (150 μM H2O2) conditions
Protocol: as §2, §3, §4

SH-SY5Y cells [3] = assay: Mitochondrial membrane potential (ΔΨm), TMRM dye; type: cell-based, human; settings: 150 μM H2O2, 6 h; compound 0.001 μM; percentage of control cells
Protocol: Since mitochondria are key players in neurodegeneration, acting as main producers and targets of ROS,[16] mitochondrial function was determined by analyzing the mitochondrial membrane potential (ΔΨm) with the fluorescent dye tetramethylrhodamine methyl ester (TMRM).
Figure 3 Effect of furanoditerpenes on ΔΨm of human neuroblastoma cells. Cells were treated for 6 h with S. tubulifera metabolites with and without 150 μM H2O2, and ΔΨm was determined with the TMRM dye. (a) Compound 1, (b) compound 2, (c) compound 3, (d) compound 4, and (e) compound 5 effects. Vitamin E (Vit E) at 25 μM was used as a positive control in oxidative stress assays. Data expressed as the percentage of control cells. Mean ± SEM of three experiments performed in triplicate. Statistical differences determined by one-way ANOVA and Dunnett’s tests. ^#p < 0.05 compared to untreated control cells. *p < 0.05, **p < 0.01, and ***p < 0.01 compared to cells treated with H2O2 alone.
To determine the neuroprotective effects of compounds, SH-SY5Y cells were seeded in 384-well plates at a density of 2.5 × 10^4 cells per well. After 24 h, cells were treated with the metabolites at nontoxic concentrations (0.001–1 μM) and 150 μM H2O2 for 6 h. […]
The effects of compounds in ΔΨm were analyzed with the fluorescent dye TMRM. […] The fluorescence was read in a plate reader at 535 nm excitation and 590 nm emission. […]

SH-SY5Y cells [4] = assay: Cell viability in H2O2 oxidative stress model, MTT assay; type: cell-based, human; settings: 150 μM H2O2, 6 h; 0.001-1 μM
Protocol: First, the capacity of 1–5 to improve cell survival under oxidative stress conditions was determined with the MTT assay (Figure 2). […] When cells were injured with the oxidant specie, a decrease in the cell viability of 23.6 ± 3.5% (p < 0.05) was observed.
Figure 2 Effect of compounds on the cell viability of SH-SY5Y cells. Compounds were added to human neuroblastoma cells for 6 h with and without 150 μM H2O2, and cell viability was evaluated with the MTT assay. Results of (a) compound 1, (b) compound 2, (c) compound 3, (d) compound 4, and (e) compound 5. Vitamin E (Vit E) at 25 μM was used as a positive control in oxidative stress assays. Mean ± standard error of the mean (SEM) of three experiments performed in triplicate. Data expressed as the percentage of control cells, compared by one-way analysis of variance (ANOVA) and Dunnett’s tests. ^#p < 0.05 compared to untreated control cells. *p < 0.05 and **p < 0.01 compared to cells treated with H2O2 alone. […]
The ability of compounds to protect cell viability from H2O2 was evaluated with 3-(4,5-dimethylthiazol-2-yl)-2,5-diphenyltetrazolium bromide (MTT) test. […] The absorbance of formazan crystals was measured at 595 nm with a plate reader. Saponin at 40 mg/mL was used as the death control, and its absorbance value was subtracted from the other data.

human cancer cell lines = tested on: human cancer cell lines; set-up: method as in PMID 31315183; settings: previous studies; cited from earlier work
[5] = set-up: method as in doi:10.1246/cl.1987.1687; settings: previous studies; cited from earlier work
[6] = tested on: mitochondrial permeability transition pore (mPTP); assay: mPTP opening, calcein-AM/CoCl2 flow cytometry; settings: 0.001 μM, 15 min pretreatment, TBHP 3 min
Protocol: SH-SY5Y cells were treated for 15 min with 1–5, and 1 mM tert-butyl hydroperoxide (TBHP) was used to open the pore. Cells were loaded with calcein-AM, which accumulates in cytosol and cell compartments and with CoCl2 that quenches cytosolic fluorescence but not the mitochondrial signal.[17] Then, fluorescence was analyzed by flow cytometry (Figure 6a). […] (a) Analysis of mPTP opening. Cells were treated with compounds at 0.001 μM for 15 min, and pore opening was induced with 1 mM TBHP. Calcein-AM and CoCl2 were used to measure mPTP aperture by flow cytometry. […] Values are presented as the percentage of control cells. Data are mean ± SEM of three independent experiments. Statistical differences determined by one-way ANOVA and Dunnett’s tests. ^###p < 0.001 compared to control cells. *p < 0.05 and **p < 0.01 compared to cells treated only with TBHP.
The inhibition of mPTP by compounds was determined with the MitoProbe Transition Pore Assay Kit, as previously described.[21] For this assay, cells were seeded in 12-well plates at 5 × 10^5 cells per well and allowed to grow for 24 h. Then, SH-SY5Y cells were detached with Detachin solution (Genlatis, San Diego), washed with PBS, and resuspended in PBS buffer with 0.6 mM CaCl2. Cells were loaded with 0.01 μM calcein-AM and incubated at 37 °C for 15 min. Then, 0.4 mM CoCl2 and compounds at 0.001 μM were added and cells were incubated for 15 min at 37 °C. After this incubation, cells were centrifuged, resuspended in 100 μL of calcium-free PBS, and kept on ice. Finally, TBHP at 1 mM was added for 3 min to the cells to induce the pore opening. […] The fluorescence of 10 000 events was analyzed with IDEAS Application vs 6.0 (Amnis Corporation, Luminex Corp).

CypB = settings: compound alone 0.001 μM, 6 h; % of untreated control cells
Protocol: Before starting the experiments, antibody specificity was determined due to the conserved structures along Cyps. […] Human neuroblastoma cells were treated with compounds at 0.001 μM for 6 h, and Cyps expression was determined by Western blot (Figure 10).
SH-SY5Y cells were treated with 1–5 at 0.001 μM for 6 h, and their effects on Cyps expression were determined by Western blot. […] Protein band expression was normalized by actin levels. Results expressed as the percentage of untreated control cells or as the percentage of H2O2 control. Mean ± SEM of three replicates carried out in duplicate. Statistical differences determined by one-way ANOVA and Dunnett’s tests. ^#p < 0.05 and ^##p < 0.01 compared to control cells. *p < 0.05, **p < 0.01, and ***p < 0.01 compared to cells treated with H2O2 alone.
SH-SY5Y cells were cultured in 12-well plates at 1 × 10^6 cells per well and allowed to settle down for 24 h. Then, cells were treated with compounds at 0.001 μM for 6 h and oxidative damage was induced with 150 μM H2O2.
Cells were washed twice with ice-cold PBS, and a hypotonic solution was added (20 mM tris–HCl pH 7.4, 10 mM NaCl, and 3 mM MgCl2, containing phosphatase and protease inhibitor cocktail). […] The supernatant was collected as the cytosolic fraction, and protein concentration was quantified with the Direct Detect instrument (Merck Millipore, Darmstadt, Germany).[15] […]

Sequence of Human CypA (P62937 whole entry): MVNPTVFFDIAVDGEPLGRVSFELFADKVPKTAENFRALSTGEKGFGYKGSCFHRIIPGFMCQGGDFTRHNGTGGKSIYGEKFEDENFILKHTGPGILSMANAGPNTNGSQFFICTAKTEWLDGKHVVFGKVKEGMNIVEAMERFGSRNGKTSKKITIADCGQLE
Sequence of human CypD (P30405 30-207): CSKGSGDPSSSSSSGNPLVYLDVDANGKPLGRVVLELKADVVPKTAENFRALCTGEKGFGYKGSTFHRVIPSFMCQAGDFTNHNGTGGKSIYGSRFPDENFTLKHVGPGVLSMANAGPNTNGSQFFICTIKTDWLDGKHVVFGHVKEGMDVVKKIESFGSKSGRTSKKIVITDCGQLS

Kd (Human CypA) [µM] | kon (Human CypA) [M⁻¹ s⁻¹] | SMILES | CypD expression under oxidative damage (CypD) | Kd (human CypD) [µM] | selectivity between CypD and CypA (KD values) (human CypD; SPR) | kon (human CypD) [M⁻¹ s⁻¹] | cytotoxicity (human cancer cell lines) | also measured
14.7 ± 1.08 | 1320 | CC1(C)C(=O)C(O)=C[C@]2(C)[C@H]3CCc4cocc4[C@]3(C)CC[C@@H]12 [Compound 2] | 37.9 ± 17.9% | 2.53 ± 0.006 | selectivity toward the mitochondrial isoform | 10000 |  | effect on GSH content (SH-SY5Y cells [1]; cotreated with 150 μM H2O2, 6 h, at 0.001 and 1 μM): increase; ROS levels (SH-SY5Y cells [2]; 150 μM H2O2, 6 h, compound 0.1 μM, percentage of untreated control cells): 89.9 ± 5.7%; effect on ROS content (SH-SY5Y cells [2]; at 0.001, 0.1 and 1 μM): reduced the levels; CypC expression under oxidative injury (CypC): 24.3 ± 2.9%
15.2 ± 1.31 | 682 | CC1(C)[C@@H](O)C(=O)C[C@]2(C)[C@H]3CCc4cocc4[C@]3(C)CC[C@@H]12 [Compound 1] | about 54% |  | selective toward CypA |  | weak cytotoxicity | effect on CypA expression (CypA): decreased its expression; ΔΨm (SH-SY5Y cells [3]): 96.7 ± 5.4%; protection of cell viability from H2O2 damage (SH-SY5Y cells [4]): not able to protect; effect on GSH content (SH-SY5Y cells [1]; compound alone and with 150 μM H2O2, 6 h): did not affected the GSH content; effect on ROS content (SH-SY5Y cells [2]; all four concentrations 0.001-1 μM): significant decrease; KD (kinetic equilibrium dissociation constant), CypD (human CypD; SPR, 1:1 Langmuir model, PBS-0.05% Tween pH 7.2, 24 °C): No binding; ka, CypD (human CypD; SPR, Table S1): No binding; kd, CypD (human CypD; SPR, Table S1): No binding; binding to CypD (human CypD; SPR, up to 50 μM): No binding; SPR signal, CypA (Human CypA; at 50 μM): 9.9 mdeg

SMILES | Kd (Human CypA) [µM] | kon (Human CypA) [M⁻¹ s⁻¹] | CypD expression under oxidative damage (CypD) | Kd (human CypD) [µM] | selectivity between CypD and CypA (KD values) (human CypD; SPR) | kon (human CypD) [M⁻¹ s⁻¹] | cytotoxicity (human cancer cell lines) | also measured
C[C@]12CC(=O)[C@H](O)[C@](C)(CO)[C@@H]1CC[C@@]1(C)c3cocc3CC[C@H]21 [Compound 4, epispongiadiol] | 27.4 ± 3.68 | 861 | about 54% | 30.4 ± 0.87 |  | 738 | weak cytotoxicity | antiviral activity [5]: antiviral activity; inhibition of mPTP opening after oxidative injury [6]: able to inhibit mPTP opening; CypB expression (CypB): 48.54 ± 11.4%
